Where two headings read alike, the source gives them in different places.
Columns and labels:
[1] = biological target: T1, beta-catenin/TCF4 engagement (Homo sapiens, UniProt P35222); assay: Nano-BRET target engagement assay (B-cat-Halo & TCF4-Luc in HEK293 cells); format: cell-based; conditions: read-out: NanoBRET Abs IC50
T1 construct: expressed in transfected cells; host or cells: HEK293
T1 sequence (P35222 1-781): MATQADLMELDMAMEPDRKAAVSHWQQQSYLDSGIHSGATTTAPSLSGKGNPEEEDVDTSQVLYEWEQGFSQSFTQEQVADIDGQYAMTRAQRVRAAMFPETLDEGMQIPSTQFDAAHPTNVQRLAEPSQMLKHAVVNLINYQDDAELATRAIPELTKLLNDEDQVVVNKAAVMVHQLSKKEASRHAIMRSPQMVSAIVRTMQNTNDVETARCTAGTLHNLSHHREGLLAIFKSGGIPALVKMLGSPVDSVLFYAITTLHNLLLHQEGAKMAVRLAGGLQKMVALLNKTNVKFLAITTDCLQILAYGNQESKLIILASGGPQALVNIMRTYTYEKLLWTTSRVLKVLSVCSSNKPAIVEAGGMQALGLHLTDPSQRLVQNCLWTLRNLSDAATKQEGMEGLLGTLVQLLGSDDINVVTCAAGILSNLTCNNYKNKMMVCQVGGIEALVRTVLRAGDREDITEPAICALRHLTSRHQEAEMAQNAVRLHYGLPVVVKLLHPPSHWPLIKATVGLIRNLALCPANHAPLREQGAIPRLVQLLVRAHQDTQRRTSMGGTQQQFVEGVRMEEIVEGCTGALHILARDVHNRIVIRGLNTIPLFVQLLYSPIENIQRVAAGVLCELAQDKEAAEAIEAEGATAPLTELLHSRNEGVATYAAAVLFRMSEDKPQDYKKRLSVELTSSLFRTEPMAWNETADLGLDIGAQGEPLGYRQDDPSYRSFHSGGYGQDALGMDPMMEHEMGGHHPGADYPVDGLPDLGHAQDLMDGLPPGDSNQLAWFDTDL

[2] = biological target: T2, full-length beta-Catenin (Uniprot ID P35222) (Homo sapiens, UniProt P35222); assay: Fluorescence polarization IC50 (beta-catenin / 5FAM-TCF4 10-53 competition); format: binding; conditions: fluorescence polarization; read-out: beta-Catenin FP IC50
T2 construct: 10 nM full-length beta-Catenin (Uniprot ID P35222)
T2 sequence (P35222 1-781): T1 sequence (P35222 1-781)

SMILES | IC50 [1] | IC50 [2] | IC50 ([1]; absolute IC50)
CC(=O)N1CCC[C@]12CC=CCCCC1(CCCC=CCCCOC(=O)N3CC[C@@](C(=O)N[C@@H](Cc4ccsc4)C(=O)N[C@@H](Cc4csc5ccccc45)C(=O)N[C@@H](CC(C)(C)C)C(N)=O)(C3)NC(=O)[C@H](CC(C)C)NC(=O)[C@H](Cc3ccccc3)NC(=O)[C@H](C)NC(=O)[C@H](CCC(N)=O)NC(=O)[C@H](Cc3cccc(C(=O)O)c3)NC(=O)[C@H](CC(=O)O)NC1=O)NC(=O)[C@H](CC(C)(C)C)NC(=O)[C@H](CC(=O)O)NC2=O (stereo partly drawn) [I-2192, Ac-PL3-Asp-Npg-B5-Asp-3COOHF-Gln-Ala-Phe-Leu-PyrS2-3Thi-BztA-Npg-NH2] | 16.1 µM | 0.022 µM | 
CC(=O)N1CCC[C@]12CC=CCCCC1(CCCC=CCCCOC(=O)N3CC[C@@](C(=O)N[C@@H](Cc4ccsc4)C(=O)N[C@@H](Cc4csc5ccccc45)C(=O)N[C@@H](CCC(N)=O)C(N)=O)(C3)NC(=O)[C@H](CC(C)C)NC(=O)[C@H](Cc3ccccc3)NC(=O)[C@H](C)NC(=O)[C@H](C)NC(=O)[C@H](CCN(CCC(F)(F)F)CC(=O)O)NC(=O)[C@H](CC(=O)O)NC1=O)NC(=O)[C@H](CC(C)(C)C)NC(=O)[C@H](CC(=O)O)NC2=O (stereo partly drawn) [I-1839, Ac-PL3-Asp-Npg-B5-Asp-[Tfp]GAbu-Ala-Ala-Phe-Leu-PyrS2-3Thi-BztA-Gln-NH2] |  | 0.021 µM | 14.6 µM
CC(=O)N1CCC[C@]12CC=CCCCC1(CCCC=CCCCOC(=O)N3CC[C@@](C(=O)N[C@@H](Cc4ccsc4)C(=O)N[C@@H](Cc4csc5ccccc45)C(=O)N[C@@H](CCC(N)=O)C(N)=O)(C3)NC(=O)[C@H](CC(N)=O)NC(=O)[C@H](Cc3ccccc3)NC(=O)[C@H](C)NC(=O)[C@H](C)NC(=O)[C@H]([C@@H](C)O)NC(=O)[C@H](CC(N)=O)NC1=O)NC(=O)[C@H](CC(C)(C)C)NC(=O)[C@H](CC(=O)O)NC2=O (stereo partly drawn) [I-1565, Ac-PL3-Asp-Npg-B5-Asn-Thr-Ala-Ala-Phe-Asn-PyrS2-3Thi-BztA-Gln-NH2] |  | 0.148 µM | > 20 µM
CC(=O)N1CCC[C@]12CC=CCCCC1(CCCC=CCCCOC(=O)N3CC[C@@](C(=O)N[C@@H](Cc4ccsc4)C(=O)N[C@@H](Cc4ccc(Cl)c(Cl)c4)C(=O)N[C@@H](CCC(N)=O)C(N)=O)(C3)NC(=O)[C@H](CC(N)=O)NC(=O)[C@H](Cc3ccccc3)NC(=O)[C@H](C)NC(=O)[C@H](C)NC(=O)[C@H](CC(=O)O)NC(=O)[C@H](CC(=O)O)NC1=O)NC(=O)[C@H](CC(C)(C)C)NC(=O)[C@H](CC(=O)O)NC2=O (stereo partly drawn) [I-2182, Ac-PL3-Asp-Npg-B5-Asp-Asp-Ala-Ala-Phe-Asn-PyrS2-3Thi-34C1F-Gln-NH2] | 11.1 µM | 0.005 µM | 
CCCC[C@@H]1NC(=O)[C@H](CC(=O)O)NC(=O)[C@]2(CC=CCCCC3(CCCC=CCCCOC(=O)N4CC[C@@](C(=O)N[C@@H](Cc5ccsc5)C(=O)N[C@@H](Cc5csc6ccccc56)C(=O)N[C@@H](CCC(N)=O)C(N)=O)(C4)NC(=O)[C@H](CCCC)NC(=O)[C@H](Cc4ccccc4)NC(=O)[C@H](C)NC(=O)[C@H](C)NC(=O)[C@H](CC(=O)O)NC(=O)[C@H](CC(=O)O)NC3=O)NC1=O)CCCN2C(C)=O (stereo partly drawn) [I-1401, Ac-PL3-Asp-nLeu-B5-Asp-Asp-Ala-Ala-Phe-nLeu-PyrS2-3Thi-BztA-Gln-NH2] |  | 0.005 µM | 21.4 µM
CCNC(=O)[C@H](CCC(N)=O)NC(=O)[C@H](Cc1csc2ccccc12)NC(=O)[C@H](Cc1ccccc1Cl)NC(=O)[C@]12CCN(C1)C(=O)OCCCC=CCCCC1(CCCC=CC[C@]3(CCCN3C(C)=O)C(=O)N[C@@H](CC(=O)O)C(=O)N[C@@H](CC(C)(C)C)C(=O)N1)C(=O)N[C@@H](CC(=O)O)C(=O)N[C@@H](CC(=O)O)C(=O)N[C@@H](C)C(=O)N[C@@H](C)C(=O)N[C@@H](Cc1ccccc1)C(=O)N[C@@H](CC(C)C)C(=O)N2 (stereo partly drawn) [I-1248, Ac-PL3-Asp-Npg-B5-Asp-Asp-Ala-Ala-Phe-Leu-PyrS2-2C1F-BztA-Gln-NHEt] |  | 0.019 µM | 29.7 µM
CC(=O)N1CCC[C@]12CC=CCCCC1(CCCC=CCCCOC(=O)N3CC[C@@](C(=O)N[C@@H](Cc4ccccc4C(F)(F)F)C(=O)N[C@@H](Cc4csc5ccccc45)C(=O)N[C@@H](CCC(=O)N4CCOCC4)C(N)=O)(C3)NC(=O)[C@H](Cc3ccccc3)NC(=O)[C@H](Cc3ccccc3)NC(=O)[C@H](C)NC(=O)[C@H](C)NC(=O)[C@H](Cc3cccc(C(=O)O)c3)NC(=O)[C@H](CC(=O)O)NC1=O)NC(=O)[C@H](CC(C)(C)C)NC(=O)[C@H](CC(=O)O)NC2=O (stereo partly drawn) [I-2543, Ac-PL3-Asp-Npg-B5-Asp-3COOHF-Ala-Ala-Phe-Phe-PyrS2-2F3MeF-BztA-MorphGln-NH2] |  | 0.037 µM | 7.3 µM
CC(=O)N1CCC[C@]12CC=CCCCC1(CCCC=CCCCOC(=O)N3CC[C@@](C(=O)N[C@@H](Cc4ccccc4Cl)C(=O)N[C@@H](Cc4csc5ccccc45)C(=O)N[C@@H](CCC(N)=O)C(=O)N[C@H](CO)Cc4ccccc4)(C3)NC(=O)[C@H](CC(C)C)NC(=O)[C@H](Cc3ccccc3)NC(=O)[C@H](C)NC(=O)[C@H](C)NC(=O)[C@H](Cc3cccc(C(=O)O)c3)NC(=O)[C@H](CC(=O)O)NC1=O)NC(=O)[C@H](CC(C)(C)C)NC(=O)[C@H](CC(=O)O)NC2=O (stereo partly drawn) [I-1674, Ac-PL3-Asp-Npg-B5-Asp-3COOHF-Ala-Ala-Phe-Leu-PyrS2-2C1F-BztA-Gln-] |  | 0.147 µM | 18.3 µM
CC(=O)N1CCC[C@]12CC=CCCCC1(CCCC=CCCCOC(=O)N3CC[C@@](C(=O)N[C@@H](Cc4ccsc4)C(=O)N[C@@H](Cc4csc5ccccc45)C(=O)N[C@@H](CC(N)=O)C(=O)N[C@@H](C)C(=O)N[C@@H](CC(C)C)C(=O)N[C@@H](C)C(=O)N[C@@H](CC(C)C)C(=O)N[C@@H](C)C(N)=O)(C3)NC(=O)[C@H](CC(C)C)NC(=O)[C@H](Cc3ccccc3)NC(=O)[C@H](C)NC(=O)[C@H](C)NC(=O)[C@H](Cc3cccc(C(=O)O)c3)NC(=O)[C@H](CC(=O)O)NC1=O)NC(=O)[C@H](CC(C)(C)C)NC(=O)[C@H](CC(=O)O)NC2=O (stereo partly drawn) [I-2282, Ac-PL3-Asp-Npg-B5-Asp-3COOHF-Ala-Ala-Phe-Leu-PyrS2-3Thi-BztA-Asn-Ala-Leu-Ala-Leu-Ala-NH2] |  | 0.155 µM | 3.7 µM
CC(=O)N1CCC[C@]12CC=CCCCC1(CCCC=CCCCOC(=O)N3CC[C@@](C(=O)N[C@@H](Cc4ccsc4)C(=O)N[C@@H](Cc4csc5ccccc45)C(=O)N[C@@H](CCC(=O)N4CC[C@@H](N(C)C)C4)C(N)=O)(C3)NC(=O)[C@H](CC(C)C)NC(=O)[C@H](Cc3ccccc3)NC(=O)[C@H](C)NC(=O)[C@H](C)NC(=O)[C@H](CN(CC(=O)O)CC(F)(F)F)NC(=O)[C@H](CC(=O)O)NC1=O)NC(=O)[C@H](CC(C)(C)C)NC(=O)[C@H](CC(=O)O)NC2=O (stereo partly drawn) [I-1805, Ac-PL3-Asp-Npg-B5-Asp-TfeGA-Ala-Ala-Phe-Leu-PyrS2-3Thi-BztA-[RDMAPyr]GlnR-NH2] |  | 0.006 µM | 9.3 µM
CC(=O)N1CCC[C@]12CC=CCCCC1(CCCC=CCCCOC(=O)N3CC[C@@](C(=O)N[C@@H](Cc4ccccc4)C(=O)N[C@@H](Cc4csc5ccccc45)C(=O)N[C@@H](Cc4ccccc4)C(N)=O)(C3)NC(=O)[C@H](CC(N)=O)NC(=O)[C@H](Cc3ccccc3)NC(=O)[C@H](C)NC(=O)[C@H](CCCCNC(C)C)NC(=O)[C@H](CCC(N)=O)NC(=O)[C@H](CC(=O)O)NC1=O)NC(=O)[C@H](CC1CCCCC1)NC(=O)[C@H](CC(N)=O)NC2=O (stereo partly drawn) [I-2068, Ac-PL3-Asn-Cha-B5-Asp-Gln-iPrLys-Ala-Phe-Asn-PyrS2-Phe-BztA-Phe-NH2] | > 20 µM | 0.338 µM | 

— patent US20240116985A1, “STAPLED PEPTIDES AND METHODS THEREOF” (priority 2020, published 2024)
